Measurements reported in paper PMC4139341 (PLoS ONE, 2014).
pIC50, pKi: −log10 of the molar value.

What was measured:
AChE = AChE (Electrophorus electricus, UniProt O42275); experiment: biochemical
Description: The modified method of Ellman et al. was adopted to measure AChE activity. Briefly, 25 µl (0.3 U/ml) AChE from Electric eel fish (Electrophorus electricus) was incubated with and without different concentrations of drugs selected from Molecular Docking studies. The reaction was carried out for 15 min at 25°C. […] Total volume of the reaction was made up to 1 ml by Tris buffer, pH 8.0. ATCI hydrolysis was measured by colored product formation, 5-thio-2-nitrobenzoate anion by reaction between DTNB and thiocholine, a hydrolysis product of ATCI. The formation of the colored product was measured at 405 nm wavelength after 30 min. The background was determined from negative controls (omission of AChE enzyme).
(§1) Lineweaver-Burk double reciprocal plot was plotted in order to determine the Km. […] The Ki was calculated directly from IC50 value using Cheng-Prussoffs classical equation [45]. [drawing 1]
(§2) The reciprocals of reaction rate (1/v) for each inhibitor concentration were plotted against the reciprocals of the substrate concentrations (1/S).

Aβ13–22 [1] = target: T1, Aβ13–22 (Homo sapiens, UniProt P05067); experiment: biochemical
Description: (§3) Aβ13–22 peptide ([…]), the aggregation prone region of Aβ, was synthesized from Thermo Fisher Scientific. Synthetic Aβ13–22 peptide was dissolved in 10% ammonium hydroxide and sonicated for 5 min. It was then diluted in 10 mM PBS, pH 7.0 to a final concentration of 200 µM.
Thioflavin T assay was performed on 7th day of incubation. 50 µl (25 µM) of Aβ13–22 was mixed with 150 µl of Thioflavin T (ThT) stock solution (50 µM ThT in PBS pH 7.0) and placed in 96-well plate (black with flat bottom, Cornings). Fluorescence emission was measured at 460–550 nm upon excitation at 440 nm. To account for background fluorescence, the fluorescence intensity measured from each control solution without Aβ was subtracted from each solution containing Aβ13–22.

[2] = target: AChE activity in neuro2a cells (Mus musculus, UniProt P21836); settings: 25 µM and 60 µM protriptyline
Description: Murine neuro2a neuroblastoma cells were obtained from National Center for Cell Science, Pune, India. The cells were maintained in Dulbecco's modified Eagle's medium (DMEM) and 10% Fetal Bovine Serum (FBS). Cells were maintained at 37°C in humidified air containing 5% CO2 and were grown in monolayer cultures.

Aβ13–22 [3] = target: T1, Aβ13–22; settings: incubated 7 days, protriptyline 0.010 mM; ∼400 nm average without
Description: as §3

BACE-1 = BACE-1 (Homo sapiens, UniProt P56817); experiment: biochemical
Description: BACE-1 activity was studied in accordance with the manufacturer's instructions (Sigma). […] Negative control included all the reactants except BACE-1 enzyme. After 2 h, fluorescence emission was measured at 405 nm upon excitation at 320 nm.
as §1, §2

Bovine trypsin = Bovine trypsin (Bos taurus, UniProt P00760); settings: 0.1 and 0.5 mM
Description: Activity of Bovine trypsin was estimated using enzyme-specific chromogenic substrate BApNA [46]. […] Further, 1 ml BApNA was added to the reaction mixture and incubated for 10 min at 37°C. The reaction was terminated by addition of 200 µl of 30% acetic acid and absorbance was measured at 410 nm.

ADAM17 = ADAM17 (Homo sapiens, UniProt P78536); experiment: biochemical; settings: read-out: inhibition of ADAM 17
Description: Fluorescence was measured at 328 nm and 420 nm for excitation and emission respectively.

Aβ13–22 [4] = target: T1, Aβ13–22
Description: as §3
Inhibition of aggregation/ glycation mediated aggregation of Aβ was detected by static light scattering method using a Perkin-Elmer Luminescence spectrometer LS50B. Both excitation and emission wavelengths were set at 400 nm. Excitation and emission slit width was set to 10 nm and 2.5 nm, respectively. Scattering was recorded for 60 sec.

glycation of insulin = glycation of insulin (Homo sapiens, UniProt P01308); settings: MALDI; 500 µM and 1000 µM protriptyline
Description: (§4) 1.5mg/ml insulin and 0.1 M glucose were incubated with various concentrations of protryptiline in 10 mM PBS, pH 7.0 for 7 days. These samples were further used to study glycation inhibition by MALDI. BSA glycation reaction was performed in a similar manner with 1mg/ml BSA concentration and inhibition was studied by AGE fluorescence and Thioflavin T assay ^1.

[5] = target: glycation of BSA (Bovine Serum Albumin) (Bos taurus, UniProt P02769); settings: AGE fluorescence and Thioflavin T fluorescence
Description: as §4

glycation of Aβ13–22 = glycation of Aβ13–22 (Homo sapiens, UniProt P05067); settings: excitation 370 nm, emission 440 nm; 0.1 M glucose, 7 days
Description: The details of insulin and BSA glycation are described in Method S1. […] These samples were further used to study glycation mediated Aβ aggregation by different assays.
Glycation associated fluorescence of Aβ was measured in amyloid, glycated amyloid treated with or without protryptiline at 370 nm excitation and emission was scanned from 400–550 nm.

Chain of BACE-1 (P56817 46-501): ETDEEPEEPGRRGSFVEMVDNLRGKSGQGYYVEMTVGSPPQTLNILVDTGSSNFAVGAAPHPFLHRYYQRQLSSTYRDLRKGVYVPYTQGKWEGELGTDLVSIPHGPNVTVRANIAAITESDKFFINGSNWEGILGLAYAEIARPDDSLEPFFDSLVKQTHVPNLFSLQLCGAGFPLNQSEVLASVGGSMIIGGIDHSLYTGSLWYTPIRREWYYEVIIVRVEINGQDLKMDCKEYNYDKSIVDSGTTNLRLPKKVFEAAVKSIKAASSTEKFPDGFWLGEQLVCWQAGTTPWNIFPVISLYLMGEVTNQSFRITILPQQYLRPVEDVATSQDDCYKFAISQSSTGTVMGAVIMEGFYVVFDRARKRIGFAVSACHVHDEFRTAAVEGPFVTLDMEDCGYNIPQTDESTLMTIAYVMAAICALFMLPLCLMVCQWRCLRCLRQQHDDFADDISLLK
Chain of AChE (O42275 24-633): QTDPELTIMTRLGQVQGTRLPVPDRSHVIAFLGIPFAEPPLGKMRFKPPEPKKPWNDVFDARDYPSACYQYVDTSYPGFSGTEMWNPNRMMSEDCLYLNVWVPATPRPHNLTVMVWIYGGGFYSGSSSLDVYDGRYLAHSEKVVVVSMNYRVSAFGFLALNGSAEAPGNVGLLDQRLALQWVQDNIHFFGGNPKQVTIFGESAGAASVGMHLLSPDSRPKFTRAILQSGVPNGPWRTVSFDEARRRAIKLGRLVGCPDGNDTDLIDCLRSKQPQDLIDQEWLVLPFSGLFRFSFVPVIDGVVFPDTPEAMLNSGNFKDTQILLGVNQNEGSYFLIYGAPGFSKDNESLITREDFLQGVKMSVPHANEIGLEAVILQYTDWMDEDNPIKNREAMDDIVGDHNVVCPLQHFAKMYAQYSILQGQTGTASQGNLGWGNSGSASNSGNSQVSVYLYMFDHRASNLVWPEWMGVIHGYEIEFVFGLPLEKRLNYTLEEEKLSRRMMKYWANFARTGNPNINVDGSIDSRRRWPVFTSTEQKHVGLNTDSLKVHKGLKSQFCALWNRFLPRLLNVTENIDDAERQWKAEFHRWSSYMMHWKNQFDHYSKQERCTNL
Chain of ADAM17 (P78536 215-824, species assumed): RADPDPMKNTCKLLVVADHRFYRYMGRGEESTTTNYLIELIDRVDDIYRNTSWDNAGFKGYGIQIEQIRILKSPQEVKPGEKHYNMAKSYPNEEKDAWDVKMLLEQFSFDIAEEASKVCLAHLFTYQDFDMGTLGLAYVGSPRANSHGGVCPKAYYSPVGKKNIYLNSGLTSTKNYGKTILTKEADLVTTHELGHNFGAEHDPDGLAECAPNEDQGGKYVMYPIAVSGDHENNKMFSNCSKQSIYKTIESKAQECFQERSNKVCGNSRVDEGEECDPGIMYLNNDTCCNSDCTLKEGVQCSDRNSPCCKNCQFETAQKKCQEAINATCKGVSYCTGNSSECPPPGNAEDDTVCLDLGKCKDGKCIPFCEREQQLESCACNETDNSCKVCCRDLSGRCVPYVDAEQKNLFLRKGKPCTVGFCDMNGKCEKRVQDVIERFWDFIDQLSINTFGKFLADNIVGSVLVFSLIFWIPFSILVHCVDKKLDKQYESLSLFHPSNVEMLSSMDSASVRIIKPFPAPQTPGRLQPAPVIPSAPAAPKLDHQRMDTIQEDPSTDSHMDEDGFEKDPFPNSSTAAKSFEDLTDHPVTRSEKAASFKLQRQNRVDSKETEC
Chain of AChE activity in neuro2a cells (P21836 32-614): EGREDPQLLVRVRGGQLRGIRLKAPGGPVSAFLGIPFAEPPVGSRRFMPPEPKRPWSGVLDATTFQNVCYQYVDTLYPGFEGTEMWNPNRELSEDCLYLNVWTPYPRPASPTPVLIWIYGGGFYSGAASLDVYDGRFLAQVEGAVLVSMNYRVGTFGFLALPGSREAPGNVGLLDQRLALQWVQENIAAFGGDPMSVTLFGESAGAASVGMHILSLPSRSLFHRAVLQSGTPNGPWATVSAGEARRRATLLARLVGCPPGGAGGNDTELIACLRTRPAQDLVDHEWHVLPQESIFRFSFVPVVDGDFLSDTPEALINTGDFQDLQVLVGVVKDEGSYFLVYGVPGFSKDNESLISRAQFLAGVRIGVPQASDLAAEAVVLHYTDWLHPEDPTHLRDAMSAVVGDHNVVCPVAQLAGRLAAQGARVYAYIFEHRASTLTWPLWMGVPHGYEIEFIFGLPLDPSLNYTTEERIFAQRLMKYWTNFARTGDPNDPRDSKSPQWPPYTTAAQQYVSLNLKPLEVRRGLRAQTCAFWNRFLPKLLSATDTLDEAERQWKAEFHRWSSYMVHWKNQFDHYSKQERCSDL
Chain of glycation of insulin (P01308 25-54 limits assumed): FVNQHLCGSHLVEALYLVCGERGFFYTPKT
Chain of Bovine trypsin (P00760 24-246): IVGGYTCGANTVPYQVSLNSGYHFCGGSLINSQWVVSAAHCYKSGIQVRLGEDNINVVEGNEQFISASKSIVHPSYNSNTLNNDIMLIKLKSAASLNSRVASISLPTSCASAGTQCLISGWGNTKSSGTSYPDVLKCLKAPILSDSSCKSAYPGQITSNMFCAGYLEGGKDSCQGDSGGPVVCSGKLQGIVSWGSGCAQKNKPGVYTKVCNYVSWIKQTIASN
Chain of glycation of BSA (Bovine Serum Albumin) (P02769 25-607): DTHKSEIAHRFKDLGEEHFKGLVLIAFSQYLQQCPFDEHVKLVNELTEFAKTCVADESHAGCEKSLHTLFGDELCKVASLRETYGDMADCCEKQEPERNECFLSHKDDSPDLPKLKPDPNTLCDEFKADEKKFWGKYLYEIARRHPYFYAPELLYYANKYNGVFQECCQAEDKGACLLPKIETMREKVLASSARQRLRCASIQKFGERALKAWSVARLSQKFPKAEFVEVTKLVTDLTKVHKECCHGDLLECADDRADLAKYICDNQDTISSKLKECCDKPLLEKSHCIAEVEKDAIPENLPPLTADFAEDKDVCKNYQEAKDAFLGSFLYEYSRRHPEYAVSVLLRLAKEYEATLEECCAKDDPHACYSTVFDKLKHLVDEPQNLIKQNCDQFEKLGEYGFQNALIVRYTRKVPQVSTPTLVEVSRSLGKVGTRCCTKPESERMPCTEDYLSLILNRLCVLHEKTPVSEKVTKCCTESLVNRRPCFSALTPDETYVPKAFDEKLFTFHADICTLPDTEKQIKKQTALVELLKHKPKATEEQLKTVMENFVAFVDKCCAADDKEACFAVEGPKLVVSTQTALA

Row | SMILES | pIC50 (AChE) | pIC50 (Aβ13–22 [1]) | Thioflavin T fluorescence of Aβ13–22 (Aβ13–22 [1]) | lag time of nucleation phase of Aβ13–22 aggregation (ThT fluorescence) (Aβ13–22 [1]) [h] | AChE activity in neuro2a cells [2] | height of Aβ13–22 aggregates (AFM) (Aβ13–22 [3]) [nm] | pKi (BACE-1) | pIC50 (BACE-1; IC50 for BACE1, summary statement) | pIC50 (BACE-1; IC50 for BACE-1, 2 h at 37°C) | type of BACE-1 inhibition (BACE-1; Lineweaver-Burk plot, 15 µM protriptyline) | inhibition of trypsin activity (Bovine trypsin) | inhibition at 100 µM (ADAM17) [%] | inhibition at 500 µM (ADAM17) [%] | light scattering of Aβ aggregates (Aβ13–22 [4]) | glycation of insulin (glycation of insulin) | glycation of BSA [5] | glycation associated fluorescence of Aβ (glycation of Aβ13–22)
1 | CN(C)CCC=C1c2ccccc2CCc2ccccc21 [amitriptyline] | 3.22 |  |  |  |  |  |  |  |  |  |  |  |  |  |  |  | 
2 | CNCCC=C1c2ccccc2CCc2ccccc21 [nortriptyline] | 3.87 |  |  |  |  |  |  |  |  |  |  |  |  |  |  |  | 
3 | CNCCCC1c2ccccc2C=Cc2ccccc21 [protriptyline] |  | > 3.82 | Concentration dependent decrease in Thioflavin T fluorescence | ~50 | concentration dependent decrease in AChE activity | ~100 | 5.30 | > 3.82 | ~4.60 | competitive inhibition | not able to inhibit trypsin activity | ~3 | ~25 | reduced the light scattering in a concentration dependent manner | inhibited glycation of insulin | inhibited glycation | reduced by protriptyline in a concentration dependent manner
